The subject of experiment [1] is MC3T3-E1 cells. Put plainly: RT-PCR verification of gene expression in MC3T3-E1 cells. In kind it is cell-based, mouse.
A further experiment concerns mouse osteoblasts. Kind of experiment: ALP activity determination in mouse osteoblasts. The class given is cell-based. As to conditions: 300 μM; differentiation medium; Day 7. On the procedure: Seven days after differentiation, the culture supernatant was removed from each plate and the cells were fixed with an acetone/ethanol solution. The ALP activity was determined using p-nitrophenyl phosphate as a substrate. Specifically, a carbonate buffer (5 mM MgCl2, 50 mM NaHCO3) containing p-nitrophenyl phosphate (Nacalai) (1 mg/mL) was added to each well (100 μL/well), followed by incubation at 37° C. Then, the OD value at 405 nm was determined with the use of a microplate reader (BMG Labtech) for each well.
For experiments, a goat polyclonal mRANKL antibody (R&D, Saint Cruz), monoclonal mRANKL antibodies ((A): clone 88227 (R&D); (B): clone 12A668) (ALEXIS), and synthetic peptide D were used. As negative controls, goat IgG (ZYMED) and a control peptide were used. Synthetic peptide D and the control peptide used were the same as those used in Example 1. […] ALP activity determination was carried out as in Example 1.
Newborn mouse calvarias were immersed in an enzyme solution (0.1% collagenase (Wako)+0.2% Dispase (GODO SHUSEI CO., LTD.)), followed by shaking in a thermostatic bath at 37° C. for 5 minutes. The initial floating cell fraction was removed therefrom and a new enzyme solution (10 mL) was added thereto, followed by another instance of shaking in a thermostatic bath at 37° C. for 10 minutes. The above operations were repeated 4 times. […]

Experiment [2] concerns MC3T3-E1 cells. Put plainly: Alizarin red S staining (calcification) of MC3T3-E1 cells. The class given is cell-based, mouse. As to conditions: 300 μM; Day 21; differentiation medium and maintenance medium. On the procedure: On Day 21 after differentiation, the cells were washed with PBS, followed by fixation with a 10% neutral buffer formalin solution.
The cells were washed with water after removal of the fixative solution. A 1% alizarin red S stain solution (Nacalai) (150 μL) was added thereto. The plate was left at room temperature for 3 minutes. Thereafter, the stain solution was discarded, followed by washing with water and drying. Then, microscopic observation was carried out.
Cells mixed with 10% FBS+αMEM (GIBCO) were seeded on a 96-well plate (8×10^3 cells/well) and a 48-well plate (2×10^4 cells/well). The culture supernatant of each plate was replaced with 10% FBS+αMEM containing 5 mM β glycerophosphoric acid (SIGMA)+10 μg/mL sodium ascorbate (SIGMA) 48 hours later. Then, the medium was replaced with new medium every 3 or 4 days. As a control, MC3T3-E1 was cultured with the use of 10% FBS+αMEM as a maintenance medium. Upon medium replacement, a peptide was added to each plate at a concentration of 300 μM, ALP activity determination and alizarin red S staining were carried out by the method described in Example 1 on Days 7 and 21.

Another experiment has as its system C57BL/6CrjCrlj mice. Kind of experiment: Peptide D administration to mice: bone density (SXA), pQCT and μCT analysis of femur. In kind it is in vivo, mouse. On the procedure:
A synthetic peptide was used for experiments. Synthetic peptide D is a cyclic peptide comprising the amino acid sequence represented by SEQ ID NO: 7, which consists of 9 amino acids and contains two cysteine residues binding to each other via a disulfide bond. […] The synthetic peptide was dissolved in 10% DMSO (Nacalai)/PBS to a concentration of 1 mg/ml.
Subcutaneous administration of peptide D was carried out in a dose of 10 mg/kg at 8:00, 14:00, and 20:00 (three times daily) for 5 days. 5% DMSO/PBS was administered to the control group. Mice were dissected 12 hour after the completion of administration for 5 days and subjected to exsanguination. Thereafter, the femur and the tibia were collected from each mouse. The whole blood of each mouse was left at room temperature for 1 hour and then centrifuged under conditions of 5000 rpm and 4° C. for 5 min. The serum was collected in a new tube. The femur and the tibia of each mouse were fixed with cold 70% ethanol.
Each femur fixed with ethanol was subjected to single energy X-ray absorptiometry (SXA) analysis (DCS-600EX-IIIR DXA for animals, ALOKA) for determination of bone density, bone mineral content, and bone surface area. The full length of each bone was divided into 20 regions. The bone density for each region was determined and actions of the peptide in each region were analyzed.
Bone structure analysis was carried out by peripheral quantitative computed tomography (hereinafter abbreviated as pQCT) and micro-computed tomography (hereinafter abbreviated as μCT). Scan-Xmate-A080 (Comscantecno Co., Ltd.) was used for μCT and XCT-Research SA+(Stratec Medizintechnik GmbH) was used for pQCT. The dedicated software (3D-BON (RATOC)) was used for preparation of three-dimensional structural image and trabecular structure analysis with the use of μCT data. In addition, for analysis by pQCT, a region with a bone density of 395 mg/cm^3 or less was determined to be cancellous bone and a region with a bone density of 690 mg/cm^3 or more was determined to be cortical bone.

[3] abbreviates: μCT trabecular structure measurement.

Bridges are numbered along the chain shown (N, C = ends). Where no end group is shown, it is not given here.

Take “peptide D: cyclic peptide of SEQ ID NO: 7, 9 amino acids, two cysteine residues bound via a disulfide bond; binds to RANKL (YCWSQYLCY; disulfide 2-8 (inferred))”: the “gene expression levels of IRS1, PDGFRβ, PDGFc, FGFR2, FGF2, CTGF, BMP-4 and IGF-2 (RT-PCR)” value in the experiment with MC3T3-E1 cells [1] (200 μM peptide D (acetate)) was “significant increases in the gene expression levels”. Besides, the “gene expression levels of ALP, Col1 and OC (RT-PCR)” value in the experiment with MC3T3-E1 cells [1] (200 μM peptide D (acetate) or 150 ng/ml BMP-2) is reported as “significant increases in the gene expression levels”. For the same substance, the ALP activation entry in the experiment with mouse osteoblasts was “caused an increase in the degree of ALP activation”. Also, the “alizarin red staining (calcification)” value in the experiment on MC3T3-E1 cells [2] is recorded as “strong degree of alizarin red staining”. For the same substance, the “bone mineral content (SXA, femur)” value in the experiment on C57BL/6CrjCrlj mice (10 mg/kg s.c. 3 times daily for 5 days) is listed as “increase in bone mineral content”. The “bone density (SXA, femur)” value in the experiment with C57BL/6CrjCrlj mice (10 mg/kg s.c. 3 times daily for 5 days, p<0.05 vs control group) was “significant increase in bone density”. The “bone density of each region (SXA20 partition analysis)” value with C57BL/6CrjCrlj mice (6th to 9th regions from the distal end of the femur, p<0.05 vs control group) was “significant increase in bone density”. Further, in the experiment on C57BL/6CrjCrlj mice (based on trabecular structure measurement by μCT), the “bone resorption inhibition actions” value is “weak actions”. Besides, the “intimal circumference of the cortical bone” value with C57BL/6CrjCrlj mice (region 5 mm away from the distal end of the femur) was “shortened”. Besides, in the experiment on C57BL/6CrjCrlj mice (region 5 mm away from the distal end of the femur, p<0.05 vs control group), the “cortical bone density (pQCT)” value is “significant increase in cortical bone density”. Moreover, the “cancellous bone content (μCT)” value in the experiment on C57BL/6CrjCrlj mice (site 2 mm away from the distal end of the femur) is “increased”. For the same substance, in the experiment on C57BL/6CrjCrlj mice (setting [3]), the “BV/TV of the cancellous bone” value is recorded as “increased” and the “trabecular width of the cancellous bone” value is listed as “increased”.

For the origin of these results see patent publication US20100260680A1, “NOVEL BONE MASS INCREASING AGENT” (ORIENTAL YEAST CO., LTD., priority 2007, published 2010).
